Tests used:
[1] = biological target: β-catenin/CBP interaction (Homo sapiens, UniProt Q92793); conditions: cited from earlier work
S100A4 = test: RT-PCR for S100A4 in bleomycin treated mice; format: in vivo; conditions: 5 mgs/Kg/day s.c., versus saline/saline mice
[2] = tested on: bleomycin induced pulmonary fibrosis; test: Bleomycin induced pulmonary fibrosis in C57/B16 mice, trichrome histology, body weight, survival; format: in vivo
Procedure: Murine models of bleomycin induced fibrosis have been developed in order to study fibrotic disease progression.
There is an absence of airway epithelium in lower left compared to upper left (see arrow heads) and extensive collagen deposition (lower left). On the sixth day, either saline (upper right) or ICG-001 (5 mgs/Kg/day) was administered for 10 days after which the mice were sacrificed and sectioned. Of interest is the upper right (saline treatment) showing lack of normal airway epithelialization, extensive collagen deposition and intra-airway hypercellularity (fibroblasts and inflammatory influx).

E-Cadherin = test: Western blot for E-Cadherin in IPF patient fibroblasts; format: cell-based, human; conditions: RPMI1640+10% FBS, 2 days, also true at the mRNA level
Procedure: (§1) Western blots for S100A4 (also know as FSP-1 or fibroblast specific protein-1) and E-Cadherin were performed on whole cell lysates.

[3] = biological target: β-catenin/p300 interaction (Homo sapiens, UniProt Q09472); conditions: cited from earlier work
S100A4 (FSP-1) = test: Western blot for S100A4 in IPF patient fibroblasts; format: cell-based, human; conditions: RPMI1640+10% FBS, 2 days, also true at the mRNA level
Procedure: as §1

collagen1A2 = test: RT-PCR for collagen1A2 in bleomycin treated mice; format: in vivo; conditions: 5 mgs/Kg/day s.c., versus saline/saline mice
[4] = tested on: TCF/β-catenin transcription; test: Bat-Gal transgenic mice, bleomycin model, X-Gal/β-galactosidase read out of TCF/β-catenin transcription; format: in vivo; conditions: 5 mg/Kg/day s.c., intratracheal bleomycin
Procedure: Furthermore, utilizing a specific inhibitor of Wnt/β-catenin/CBP driven transcription (ICG-001, 5 mg/Kg/day s.c.) Wnt/β-catenin was inhibited by >95% as judged by β-galactogidase activity. ICG-001 is among the structures described in detail below.
Using this murine model of pulmonary fibrosis in transgenic Bat-al mice, ICG-001 (5 mg/Kg/day) blocked >95% of bleomycin-induced TCF/βcatenin transcription.
These mice have a Beta-Galactosidase transgene driven by a TCF/Catenin driven promoter (i.e. a read out for activated Wnt/catenin signaling). The mice were given intratracheal saline or bleomycin and either treated with ICG-001 (5 mgs/Kg/day subcutaneously) or saline as vehicle control. The mice were sacrificed and the lungs sectioned and stained with X-Gal (blue color) A) intratracheal bleo+saline. B) intracheal bleo+ICG-001 C) saline+saline.
The dose was selected because ICG-001 reduces TCF/βCatenin driven O-Galactosidase expression >95% at 5 mgs/Kg/day.

[5] = 5 mgs/Kg/day for 10 days from the sixth day after intratracheal bleomycin

Chain of β-catenin/CBP interaction (Q92793 whole entry): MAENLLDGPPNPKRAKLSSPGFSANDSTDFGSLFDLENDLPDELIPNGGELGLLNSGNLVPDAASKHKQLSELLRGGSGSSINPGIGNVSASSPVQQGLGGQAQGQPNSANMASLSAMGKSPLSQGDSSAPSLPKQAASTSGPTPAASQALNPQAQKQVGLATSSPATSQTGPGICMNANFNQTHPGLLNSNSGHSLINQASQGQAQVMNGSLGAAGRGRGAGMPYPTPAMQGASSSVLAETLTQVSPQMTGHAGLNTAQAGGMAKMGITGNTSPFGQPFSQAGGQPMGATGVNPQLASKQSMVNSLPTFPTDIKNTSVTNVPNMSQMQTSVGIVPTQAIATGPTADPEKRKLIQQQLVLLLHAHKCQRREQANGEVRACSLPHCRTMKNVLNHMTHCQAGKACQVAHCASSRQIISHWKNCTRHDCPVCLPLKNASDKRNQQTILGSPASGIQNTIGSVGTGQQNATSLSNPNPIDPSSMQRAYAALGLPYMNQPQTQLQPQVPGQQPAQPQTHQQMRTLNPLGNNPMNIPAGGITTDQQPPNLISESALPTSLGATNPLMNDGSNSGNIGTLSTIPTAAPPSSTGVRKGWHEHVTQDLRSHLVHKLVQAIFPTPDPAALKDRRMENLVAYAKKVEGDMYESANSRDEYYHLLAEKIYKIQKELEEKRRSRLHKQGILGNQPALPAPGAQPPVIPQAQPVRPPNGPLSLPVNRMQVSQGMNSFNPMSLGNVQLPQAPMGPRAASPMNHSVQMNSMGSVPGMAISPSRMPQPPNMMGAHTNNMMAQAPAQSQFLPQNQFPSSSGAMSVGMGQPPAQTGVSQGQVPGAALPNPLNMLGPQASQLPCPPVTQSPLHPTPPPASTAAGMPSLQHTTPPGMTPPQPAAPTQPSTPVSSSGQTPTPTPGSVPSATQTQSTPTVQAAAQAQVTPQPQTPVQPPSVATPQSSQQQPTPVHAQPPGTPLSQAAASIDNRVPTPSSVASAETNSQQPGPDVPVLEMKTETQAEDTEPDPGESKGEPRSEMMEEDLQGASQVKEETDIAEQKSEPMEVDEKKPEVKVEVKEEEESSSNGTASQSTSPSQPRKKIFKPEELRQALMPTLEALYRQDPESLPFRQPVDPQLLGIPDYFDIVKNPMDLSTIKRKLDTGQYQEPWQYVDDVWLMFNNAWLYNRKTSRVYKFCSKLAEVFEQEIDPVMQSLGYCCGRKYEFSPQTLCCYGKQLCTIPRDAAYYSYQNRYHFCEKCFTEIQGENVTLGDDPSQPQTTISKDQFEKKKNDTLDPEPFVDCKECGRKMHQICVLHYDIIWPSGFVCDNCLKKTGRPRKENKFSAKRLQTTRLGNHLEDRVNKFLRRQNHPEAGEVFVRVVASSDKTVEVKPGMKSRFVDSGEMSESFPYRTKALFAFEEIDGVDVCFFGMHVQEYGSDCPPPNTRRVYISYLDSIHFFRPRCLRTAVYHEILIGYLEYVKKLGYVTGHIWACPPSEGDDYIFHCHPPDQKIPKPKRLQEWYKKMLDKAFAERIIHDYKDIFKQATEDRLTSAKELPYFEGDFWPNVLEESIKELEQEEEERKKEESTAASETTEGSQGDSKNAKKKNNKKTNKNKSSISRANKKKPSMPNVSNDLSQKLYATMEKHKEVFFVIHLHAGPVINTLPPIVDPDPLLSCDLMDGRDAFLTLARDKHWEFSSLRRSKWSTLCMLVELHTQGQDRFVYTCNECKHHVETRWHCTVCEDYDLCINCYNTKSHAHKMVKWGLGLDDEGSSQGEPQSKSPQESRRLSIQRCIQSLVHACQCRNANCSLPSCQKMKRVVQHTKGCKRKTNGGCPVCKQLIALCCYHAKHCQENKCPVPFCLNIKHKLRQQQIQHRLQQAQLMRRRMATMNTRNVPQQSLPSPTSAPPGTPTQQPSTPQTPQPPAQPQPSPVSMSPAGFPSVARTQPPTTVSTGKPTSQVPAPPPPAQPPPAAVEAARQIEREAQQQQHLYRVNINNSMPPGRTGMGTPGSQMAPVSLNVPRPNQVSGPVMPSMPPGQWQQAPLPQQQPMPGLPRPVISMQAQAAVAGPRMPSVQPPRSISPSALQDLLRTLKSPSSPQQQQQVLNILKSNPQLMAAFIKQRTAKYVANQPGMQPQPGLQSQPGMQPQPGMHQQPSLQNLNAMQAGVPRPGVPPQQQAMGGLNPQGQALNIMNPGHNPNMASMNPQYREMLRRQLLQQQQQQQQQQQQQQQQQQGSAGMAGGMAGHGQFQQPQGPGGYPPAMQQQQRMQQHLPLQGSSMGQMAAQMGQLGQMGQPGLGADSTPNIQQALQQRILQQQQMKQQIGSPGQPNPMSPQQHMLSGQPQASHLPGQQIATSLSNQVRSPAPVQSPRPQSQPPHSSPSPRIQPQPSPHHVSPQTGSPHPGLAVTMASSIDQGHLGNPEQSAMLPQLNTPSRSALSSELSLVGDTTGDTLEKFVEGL
Chain of β-catenin/p300 interaction (Q09472 whole entry): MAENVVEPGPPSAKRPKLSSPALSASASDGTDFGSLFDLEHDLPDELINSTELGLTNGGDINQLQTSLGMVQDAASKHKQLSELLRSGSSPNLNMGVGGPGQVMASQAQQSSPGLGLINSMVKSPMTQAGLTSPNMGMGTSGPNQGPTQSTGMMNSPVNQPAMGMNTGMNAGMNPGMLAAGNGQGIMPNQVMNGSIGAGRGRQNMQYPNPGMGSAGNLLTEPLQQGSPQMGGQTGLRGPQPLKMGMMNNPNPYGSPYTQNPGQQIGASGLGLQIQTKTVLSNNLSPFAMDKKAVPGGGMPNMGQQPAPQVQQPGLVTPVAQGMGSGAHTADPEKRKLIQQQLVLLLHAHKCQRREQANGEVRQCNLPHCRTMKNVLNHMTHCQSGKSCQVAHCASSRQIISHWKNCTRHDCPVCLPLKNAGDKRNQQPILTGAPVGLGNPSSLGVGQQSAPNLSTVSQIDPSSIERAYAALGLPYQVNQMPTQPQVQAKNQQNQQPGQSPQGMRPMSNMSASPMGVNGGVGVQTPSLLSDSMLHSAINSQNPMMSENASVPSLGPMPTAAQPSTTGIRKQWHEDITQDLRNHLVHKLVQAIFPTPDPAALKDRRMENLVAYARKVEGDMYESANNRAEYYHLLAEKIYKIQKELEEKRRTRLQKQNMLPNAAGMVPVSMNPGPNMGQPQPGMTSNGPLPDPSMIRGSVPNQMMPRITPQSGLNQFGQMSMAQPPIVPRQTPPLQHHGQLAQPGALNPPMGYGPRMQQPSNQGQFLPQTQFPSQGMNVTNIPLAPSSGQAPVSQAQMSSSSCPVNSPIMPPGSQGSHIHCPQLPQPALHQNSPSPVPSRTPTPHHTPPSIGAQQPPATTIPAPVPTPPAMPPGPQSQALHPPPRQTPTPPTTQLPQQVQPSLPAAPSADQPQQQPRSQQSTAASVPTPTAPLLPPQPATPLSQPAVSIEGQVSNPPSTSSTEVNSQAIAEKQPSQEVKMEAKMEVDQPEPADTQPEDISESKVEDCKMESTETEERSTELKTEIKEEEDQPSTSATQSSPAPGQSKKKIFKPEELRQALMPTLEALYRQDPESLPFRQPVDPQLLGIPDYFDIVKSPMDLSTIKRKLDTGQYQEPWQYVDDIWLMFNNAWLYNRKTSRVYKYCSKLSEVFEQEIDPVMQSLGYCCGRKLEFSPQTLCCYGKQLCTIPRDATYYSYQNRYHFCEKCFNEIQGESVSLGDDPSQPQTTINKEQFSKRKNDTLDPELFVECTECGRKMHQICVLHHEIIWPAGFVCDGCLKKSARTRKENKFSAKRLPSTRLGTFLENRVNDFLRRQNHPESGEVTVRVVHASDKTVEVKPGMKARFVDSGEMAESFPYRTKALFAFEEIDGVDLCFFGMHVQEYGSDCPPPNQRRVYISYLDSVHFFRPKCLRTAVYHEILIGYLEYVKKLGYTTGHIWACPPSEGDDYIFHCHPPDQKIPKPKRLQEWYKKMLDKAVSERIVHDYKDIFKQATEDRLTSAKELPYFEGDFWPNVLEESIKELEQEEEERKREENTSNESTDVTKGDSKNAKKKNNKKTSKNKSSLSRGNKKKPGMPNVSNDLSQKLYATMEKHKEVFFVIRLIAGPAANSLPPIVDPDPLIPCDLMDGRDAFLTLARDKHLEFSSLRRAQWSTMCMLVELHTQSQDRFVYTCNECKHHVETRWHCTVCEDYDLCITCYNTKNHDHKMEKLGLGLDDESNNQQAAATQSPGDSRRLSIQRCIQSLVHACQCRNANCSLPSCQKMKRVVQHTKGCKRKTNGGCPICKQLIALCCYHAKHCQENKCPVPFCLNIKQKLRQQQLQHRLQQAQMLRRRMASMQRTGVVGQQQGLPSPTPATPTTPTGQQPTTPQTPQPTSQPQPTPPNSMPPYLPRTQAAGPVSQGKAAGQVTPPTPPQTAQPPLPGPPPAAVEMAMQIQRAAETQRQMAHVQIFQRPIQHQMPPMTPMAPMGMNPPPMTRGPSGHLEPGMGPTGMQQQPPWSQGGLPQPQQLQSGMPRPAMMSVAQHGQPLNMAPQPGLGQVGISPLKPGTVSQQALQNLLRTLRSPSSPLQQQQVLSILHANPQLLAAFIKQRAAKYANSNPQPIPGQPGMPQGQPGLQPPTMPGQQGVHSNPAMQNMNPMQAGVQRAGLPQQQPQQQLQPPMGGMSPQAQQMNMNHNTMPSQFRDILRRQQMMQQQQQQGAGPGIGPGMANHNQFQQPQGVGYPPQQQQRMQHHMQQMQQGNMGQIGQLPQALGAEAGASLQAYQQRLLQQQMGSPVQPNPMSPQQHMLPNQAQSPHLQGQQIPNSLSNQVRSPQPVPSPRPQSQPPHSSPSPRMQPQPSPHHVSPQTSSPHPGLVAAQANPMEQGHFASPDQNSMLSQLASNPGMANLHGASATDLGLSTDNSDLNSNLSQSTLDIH

O=C1[C@H](Cc2ccc(O)cc2)N2C(=O)CCN(C(=O)NCc3ccccc3)[C@H]2CN1Cc1cccc2ccccc12 [ICG-001]
effect on β-catenin/CBP interaction [1]: selectively blocks the β-catenin/CBP interaction | S100A4 message (RT-PCR) (S100A4): reduced essentially to negative control | disease progression, as judged by reduced mortality, histopathology and endogenous gene expression ([2]; 5 mg/Kg/day, murine bleomycin model): not only halts but reverses disease progression | airway histology (lung sections) [2, 5]: the airway looks essentially normal | body weight [2, 5]: regained normal body weight | collagen levels (trichrome stain) [2, 5]: normal collagen levels | survival ([2]; 5 mgs/Kg/day for 10 days from the sixth day after intratracheal bleomycin, untreated controls did not survive): survived | E-cadherin expression (Western blot, whole cell lysates) (E-Cadherin): increased E-cadherin expression | effect on β-catenin/p300 interaction [3]: without interfering | S100A4 expression (Western blot, whole cell lysates) (S100A4 (FSP-1)): decreased S100A4 expression | collagen1A2 message (RT-PCR) (collagen1A2): reduced essentially to negative control | inhibition of bleomycin-induced TCF/β-catenin transcription (β-galactosidase activity) [4]: > 95%
